Results taken from ChEMBL document CHEMBL5252615, “Synthesis, biological activity and mechanism of action of novel allosecurinine derivatives as potential antitumor agents” (Bioorg Med Chem, 2023).
Calls of active or inactive are those of the source. The rule behind the calls is not given here.

Key:
U-937 [1] = experiment: Induction of apoptosis in human U-937 cells assessed as decrease in expression level of PARP measured at 1 to 5 uM after 48 hrs by Western blotting analysis; type: functional, cell-based; conditions: dose 1-5 µM
NB-4 [2] = experiment: Induction of differentiation of human NB4 cells assessed as increase in CD11b expression at 0.5 uM measured after 72 hrs by flow cytometric analysis; type: functional, cell-based
NB-4 [3] = experiment: Induction of apoptosis in human NB4 cells assessed as decrease in expression level of YAP1 measured at 1 to 5 uM after 48 hrs by Western blotting analysis; type: functional, cell-based; conditions: dose 1-5 µM
U-937 [4] = experiment: Antitumor activity against human U-937 cells assessed as reduction in cell viability incubated for 72 hrs; type: functional, cell-based; conditions: U-937, 72 h
K562 [5] = experiment: Induction of apoptosis in human K562 cells assessed as late apoptotic cells at 2.5 uM after 48 hrs by Annexin-V-FITC/PI staining based flow cytometric analysis (reference value: 0.21%); type: functional
HL-60 [6] = experiment: Induction of apoptosis in human HL-60 cells assessed as early apoptotic cells at 2.5 uM after 48 hrs by Annexin-V-FITC/PI staining based flow cytometric analysis (reference value: 0.68%); type: functional
U-937 [7] = experiment: Induction of apoptosis in human U-937 cells assessed as late apoptotic cells at 2.5 uM after 48 hrs by Annexin-V-FITC/PI staining based flow cytometric analysis (reference value: 0.94%); type: functional
THP-1 [8] = experiment: Induction of reactive oxygen species production in human THP-1 cells at 1 to 5 uM measured after 48 hrs by DCFH-DA staining based flow cytometric analysis; type: functional, cell-based; conditions: dose 1-5 µM
U-937 [9] = experiment: Induction of reactive oxygen species production in human U-937 cells at 1 to 5 uM measured after 48 hrs by DCF fluorescence analysis; type: functional, cell-based; conditions: dose 1-5 µM
K562 [10] = experiment: Induction of apoptosis in human K562 cells assessed as viable cells at 2.5 uM after 48 hrs by Annexin-V-FITC/PI staining based flow cytometric analysis (reference value: 97.34%); type: functional; conditions: read-out: Activity
KG-1 [11] = experiment: Induction of reactive oxygen species production in human KG-1 cells at 1 to 5 uM measured after 48 hrs by DCFH-DA staining based flow cytometric analysis; type: functional, cell-based; conditions: dose 1-5 µM
U-937 [12] = experiment: Induction of apoptosis in human U-937 cells assessed as viable cells at 2.5 uM after 48 hrs by Annexin-V-FITC/PI staining based flow cytometric analysis (reference value: 94.78%); type: functional; conditions: read-out: Activity
U-937 [13] = experiment: Induction of apoptosis in human U-937 cells assessed as accumulation of cells at sub-G1 phase at 2.5 uM after 48 hrs by PI staining based flow cytometric analysis; type: functional, cell-based
K562 [14] = experiment: Induction of apoptosis in human K562 cells assessed as necrotic cells at 2.5 uM after 48 hrs by Annexin-V-FITC/PI staining based flow cytometric analysis (reference value: 1.19%); type: functional
SK-OV-3 = experiment: Antitumor activity against taxol-resistant human SK-OV-3 cells assessed as reduction in cell viability incubated for 72 hrs; type: functional, cell-based; conditions: SK-OV-3, 72 h
NB-4 [15] = experiment: Induction of apoptosis in human NB4 cells assessed as necrotic cells at 2.5 uM after 48 hrs by Annexin-V-FITC/PI staining based flow cytometric analysis (reference value: 0.29%); type: functional
THP-1 [16] = experiment: Induction of apoptosis in human THP-1 cells assessed as change in mitochondrial membrane potential after 48 hrs by JC-1 staining based flow cytometric analysis; type: functional, cell-based
KG-1 [17] = experiment: Induction of apoptosis in human KG-1 cells assessed as late apoptotic cells at 2.5 uM after 48 hrs by Annexin-V-FITC/PI staining based flow cytometric analysis (reference value: 0.16%); type: functional
U-937 [18] = experiment: Induction of apoptosis in human U-937 cells assessed as decrease in expression level of Bcl-2 measured after 48 hrs by Western blotting analysis; type: functional, cell-based; conditions: dose 1-5 µM
THP-1 [19] = experiment: Induction of apoptosis in human THP-1 cells assessed as necrotic cells at 2.5 uM after 48 hrs by Annexin-V-FITC/PI staining based flow cytometric analysis (reference value: 0.19%); type: functional
U-937 [20] = experiment: Induction of apoptosis in human U-937 cells assessed as accumulation of cells at G1 phase at 1 to 2.5 uM after 48 hrs by PI staining based flow cytometric analysis; type: functional, cell-based; conditions: dose 1-2.5 µM
NB-4 [21] = experiment: Induction of apoptosis in human NB4 cells assessed as late apoptotic cells at 2.5 uM after 48 hrs by Annexin-V-FITC/PI staining based flow cytometric analysis (reference value: 0.89%); type: functional
K562 [22] = experiment: Induction of apoptosis in human K562 cells assessed as decrease in expression level of YAP1 measured at 1 to 5 uM after 48 hrs by Western blotting analysis; type: functional, cell-based; conditions: dose 1-5 µM
U-937 [23] = experiment: Induction of differentiation of human U-937 cells assessed as increase in CD11b expression at 0.5 uM measured after 72 hrs by flow cytometric analysis; type: functional, cell-based
HL-60 [24] = experiment: Induction of apoptosis in human HL-60 cells assessed as necrotic cells at 2.5 uM after 48 hrs by Annexin-V-FITC/PI staining based flow cytometric analysis (reference value: 2.83%); type: functional
KG-1 [25] = experiment: Induction of apoptosis in human KG-1 cells assessed as necrotic cells at 2.5 uM after 48 hrs by Annexin-V-FITC/PI staining based flow cytometric analysis (reference value: 2.73%); type: functional
NB-4 [26] = experiment: Induction of apoptosis in human NB4 cells assessed as decrease in expression level of XIAP measured at 1 to 5 uM after 48 hrs by Western blotting analysis; type: functional, cell-based; conditions: dose 1-5 µM
K562 [27] = experiment: Induction of apoptosis in human K562 cells assessed as decrease in expression level of XIAP measured at 1 to 5 uM after 48 hrs by Western blotting analysis; type: functional, cell-based; conditions: dose 1-5 µM
HL-60 [28] = experiment: Antitumor activity against human HL-60 cells assessed as reduction in cell viability incubated for 72 hrs; type: functional, cell-based; conditions: HL-60, 72 h
HL-60 [29] = experiment: Induction of apoptosis in human HL-60 cells assessed as viable cells at 2.5 uM after 48 hrs by Annexin-V-FITC/PI staining based flow cytometric analysis (reference value: 96.05%); type: functional; conditions: read-out: Activity
U-937 [30] = experiment: Induction of reactive oxygen species production in human U-937 cells at 1 to 5 uM measured after 48 hrs by DCFH-DA staining based flow cytometric analysis; type: functional, cell-based; conditions: dose 1-5 µM
KG-1 [31] = experiment: Induction of apoptosis in human KG-1 cells assessed as decrease in expression level of YAP1 measured at 1 to 5 uM after 48 hrs by Western blotting analysis; type: functional, cell-based; conditions: dose 1-5 µM
K562 [32] = experiment: Induction of apoptosis in human K562 cells assessed as early apoptotic cells at 2.5 uM after 48 hrs by Annexin-V-FITC/PI staining based flow cytometric analysis (reference value: 1.26%); type: functional
THP-1 [33] = experiment: Induction of apoptosis in human THP-1 cells assessed as decrease in expression level of Bcl-2 measured after 48 hrs by Western blotting analysis; type: functional, cell-based; conditions: dose 1-5 µM

IC50 (U-937 [4]): 1.53 µM | IC50 (SK-OV-3): 3.68 µM | IC50 (HL-60 [28]): 3.95 µM
SMILES: O=C1O[C@@]23C[C@@H](C=CC2=C1C(O)c1ccc([N+](=O)[O-])cc1)N1CCCC[C@H]13 (some centres undefined)
Activity (U-937 [1]): Active | Activity (NB-4 [2]): Active | Activity (NB-4 [3]): Active | Activity (K562 [5]): 12.56% | Activity (HL-60 [6]): 18.2% | Activity (U-937 [7]): 15.33% | Activity (THP-1 [8]): Active | Activity (U-937 [9]): Active | viability at 2.5 µM (K562 [10]): 77.5% | Activity (KG-1 [11]): Active | viability at 2.5 µM (U-937 [12]): 41.3% | Activity (U-937 [13]): Active | Activity (K562 [14]): 6.62% | Activity (NB-4 [15]): 3.4% | Activity (THP-1 [16]): Active | Activity (KG-1 [17]): 46.7% | Activity (U-937 [18]): Dose-Dependent Effect | Activity (THP-1 [19]): 1.76% | Activity (U-937 [20]): Active | Activity (NB-4 [21]): 50.58% | Activity (K562 [22]): Active | Activity (U-937 [23]): Active | Activity (HL-60 [24]): 2.42% | Activity (KG-1 [25]): 7.79% | Activity (NB-4 [26]): Active | Activity (K562 [27]): Active | viability at 2.5 µM (HL-60 [29]): 73% | Activity (U-937 [30]): Active | Activity (KG-1 [31]): Active | Activity (K562 [32]): 3.32% | Activity (THP-1 [33]): Dose-Dependent Effect
